In ChEMBL document CHEMBL3507680, “University of Dundee, Gates Library screen for HepG2 cell viability”:

Assay: Human HepG2 cell viability assay in 384 well format
Assay type: toxicity, cell-based
Set-up: dose 125 nL, time 70.5 hour; cytotoxicity at 70.5 h: concentration not given beside the values
Conditions: HepG2 cells, read-out: Inhibition

| Compound | cytotoxicity at 70.5 h |
| --- | --- |
| CC(C(=O)NCc1cn2cc(Br)ccc2n1)S(C)(=O)=O (centres undefined) | -5.34% |
| Cc1cc(NS(=O)(=O)c2ccc(Cl)s2)ccc1-n1cccc1C(=O)O | -4.85% |
| CS(=O)(=O)N1CCc2c(cccc2NC(=O)Nc2ccccn2)C1 | 10.3% |
| FC(F)(F)c1ccnc(N2CCCN(C3CCOCC3)CC2)c1 | -11.5% |
| Cc1cccc(N2CCC(NCc3cnc(C4CCC4)s3)CC2)n1 | 3.13% |
| CC(C)(C)OC(=O)N1CCCN(c2nnc(C3CC3)s2)CC1 | -0.941% |
| FC(F)(F)c1ccnc(N2CCCOCC2)c1 | -13.6% |
| c1cncc(CN2CCC(NCCc3ccc4c(c3)CCO4)CC2)c1 | 4.11% |
| NCc1ccc(Oc2cccc(Cl)c2Cl)cc1 | 14.7% |
| CCOc1ccccc1Oc1ccc(CN)cn1 | -7.48% |
| CCc1nc(COc2ccc(N(C)C(C)=O)cc2)no1 | 26% |
| O=c1cc(CN2CCC(CCc3ccc(O)cc3)CC2)[nH]c(=O)[nH]1 | -6.15% |
| O=C(CNc1cc2c(cc1Br)OCCO2)NC1CCS(=O)(=O)C1 (centres undefined) | -2.07% |
| NC(=O)CN1CCC(NC(=O)N2CCCC2c2ccncc2)CC1 (centres undefined) | -11.7% |
| O=C(Nc1cc2c(cc1Br)OCCO2)NC1CCS(=O)(=O)C1 (centres undefined) | 10.1% |
| Cc1nnc2n1CCN(C(=O)CN1C(=O)CSc3ccccc31)C2 | -3.59% |
| Cc1ncc(CN(C)C(=O)c2ccc3c(c2O)OC(C)(C)C3)s1 | -1.48% |
| Cc1nnc2n1CCN(C(=O)CN1C(=O)CCCc3ccccc31)C2 | 12.9% |
| Cc1cc(CNc2ccc3nc(C4CC4)sc3c2)no1 | -9.59% |
| CCCNC(=O)C1CCN(CC2(O)CCC(C)CC2)CC1 (centres undefined) | -3.07% |
| CC1CCC(O)(CN2CCN(CCNC(=O)C3CCC3)CC2)CC1 (centres undefined) | -14.6% |
| O=C(NS(=O)(=O)c1cnn(-c2ccccc2F)c1)c1ccco1 | 1.58% |
| CC(C)c1cnc(CN2C(=O)CC3(CCSC3)C2=O)o1 (centres undefined) | -3.08% |
| Nc1nccnc1C(=O)N(Cc1ccco1)CC1CCCO1 (centres undefined) | -2.09% |

| Compound | cytotoxicity at 70.5 h |
| --- | --- |
| CC(C)(C)c1cnc(CN2C(=O)CC3(CCSC3)C2=O)o1 (centres undefined) | -4.79% |
| CCOc1ccc(NC(=O)N(CCC#N)Cc2ccccn2)cc1F | 12% |
| COCCCNC(=O)C1CCN(CC2(O)CCC(C)CC2)CC1 (centres undefined) | -3.99% |
| CC(c1ccccc1)N(C)C(=O)CN1CCCc2cccc(F)c21 (centres undefined) | 0.621% |
| CC(C)c1noc(CN(C)C(c2ccc(F)cc2)c2cccnc2)n1 (centres undefined) | 10.2% |
| Cc1ncsc1CN(C)C(=O)C(CC(C)C)N1CCCCC1=O (centres undefined) | -2.15% |
| COCCNC(=O)c1nn(-c2cccc(C(C)C)c2)cc1O | 41.1% |
| Cc1noc(C)c1CN(C)CC(=O)/N=c1\cc[nH]n1C(C)C1CC1 (centres undefined) | 22.1% |
| COCc1nc(CNc2cccc(-c3ncon3)c2)cs1 | 29.2% |
| CCN(C(=O)CN1CCCC1c1ccc(OC)cc1)c1ccccc1C (centres undefined) | -0.0656% |
| Cc1sc2nc(SC(C)c3nc(C(C)C)no3)nc(N)c2c1C (centres undefined) | 3.75% |
| Cn1cc(CNC(=O)C2COCC(=O)N2Cc2ccccc2)cn1 (centres undefined) | 2.62% |
| CC(C)CCN(C(=O)c1cc2c([nH]c1=O)CCCC2=O)C1CC1 | -2.36% |
| COc1c(C)cnc(CNC(=O)CCc2nc3ccccc3[nH]2)c1C | -3.14% |
| Cc1occc1C(=O)N1CCC(C(O)c2ccc(Cl)cc2)CC1 (centres undefined) | 5.5% |
| CCc1cnc(CN2CCOC(c3nc(C)n[nH]3)C2)o1 (centres undefined) | -7.69% |
| CNC(=O)c1csc(-c2ccoc2)n1 | -4.01% |
| O=c1[nH]nc(CNc2cncc(Br)c2)[nH]1 | 29.9% |
| CC(C)Cc1ccc(S(=O)(=O)NCCCN2CCNC(=O)C2)cc1 | -3.66% |
| CN(C)C(=O)CN1CCCc2c(F)cc(Br)cc21 | -2.61% |
| COc1ccccc1OCCC(=O)NCc1ncc(C)c(OC)c1C | -4.64% |
| COCCN(CCN(C)C)C(=O)NC1CC1 | -2.74% |
| COC(=O)c1cccc(CNC(=O)c2cc(C(C)C)n(C)n2)c1 | 27.4% |
| CC(Cn1cccn1)NCCS(=O)(=O)c1ccccc1 (centres undefined) | -8.75% |

| Compound | cytotoxicity at 70.5 h |
| --- | --- |
| CC(Cn1cccn1)NCCS(=O)(=O)c1ccc(Cl)cc1 (centres undefined) | -9.68% |
| COc1ccc2c(c1)C(NCCc1c(C)noc1C)CCCO2 (centres undefined) | 29.3% |
| O=C(CN1CCCc2c(F)cc(Br)cc21)N1CCCC1 | 3.5% |
| CN(CC(O)C1CC1)C(=O)c1ccc(-c2nc(C3CC3)no2)cc1 (centres undefined) | 2.53% |
| COc1cccc(S(=O)(=O)CCNCCn2cccn2)c1 | -10.6% |
| CC(=O)N(c1ccc(C)cc1)c1nc(CN2CCCCC2C)cs1 (centres undefined) | 16.8% |
| CNS(=O)(=O)CCCN1CCN(C(C)c2cccnc2)CC1 (centres undefined) | 18.3% |
| COc1ccc(CCNC(=O)CC(NC(N)=O)c2ccccc2)cc1 (centres undefined) | 14.7% |
| Cc1nnc(NC(=O)NC(C)C(=O)NC2CCCC2)s1 (centres undefined) | -3.86% |
| CN(C)C(=O)CCNC(=O)NCc1ccc(Br)cc1Cl | 17.2% |
| CC(=O)NCCNC(=O)NCc1ccc(Br)cc1Cl | -0.47% |
| CC(=O)N(c1ccc(F)cc1)c1nc(CN2CCCC2C(C)C)cs1 (centres undefined) | 24.7% |
| O=C(CN1CCN(CCO)CC1)NCc1ccc(Cl)s1 | -1.03% |
| N#Cc1cc(N2CCC(S(N)(=O)=O)CC2)c2ccccc2n1 | -2.54% |
| N#Cc1cc(N2CCC(CS(N)(=O)=O)CC2)nc2ccccc12 | 1.54% |
| N#Cc1cc(N2CCC(CS(N)(=O)=O)CC2)c2ccccc2n1 | 14.9% |
| CSc1nc(C2CC2)nc(C)c1C(=O)NCc1cc(C)on1 | -0.104% |
| O=C(c1ccc[nH]1)N1CCCC1c1nc(-c2ccccc2)n[nH]1 (centres undefined) | -1.48% |
| COC(=O)CN(Cc1ccccc1C)C(=O)C1CCC1 | 8.03% |
| CCOCCS(=O)(=O)N(CC)Cc1ccc(Cl)s1 | -11.4% |
| O=S(=O)(NCCc1c[nH]c2ccc(F)cc12)C1CCOCC1 | -16% |
| CC(Nc1ccc(CCN2CCCCC2)cc1)C(=O)N(C)CCC#N (centres undefined) | -6.46% |
| CN(C(=O)c1ccc(OCC(F)F)nc1)c1ccc2c(c1)CCO2 | -4.77% |
| COC(=O)CN(Cc1ccccc1C)C(=O)CCCNC(=O)C1CC1 | 10.1% |

| Compound | cytotoxicity at 70.5 h |
| --- | --- |
| Cc1ccc(NC(=O)CCc2ccco2)cc1N1CCOC1=O | -10.1% |
| CCCc1nnc(NC(=O)N2CCCC(NC(C)=O)C2)s1 (centres undefined) | -4.43% |
| COc1ccc(S(=O)(=O)Cc2cc(C)on2)cc1 | -4.34% |
| COc1cccc(S(=O)(=O)Cc2cc(C)on2)c1 | -3.06% |
| Cc1cc(CS(=O)(=O)c2ccccc2)no1 | -5.49% |
| Cc1nc(NC(=O)C(C)S(C)(=O)=O)sc1Cc1ccccc1F (centres undefined) | -7.43% |
| COC(=O)N1CCC(NC(=O)CC(C)CCc2ccccc2)CC1 (centres undefined) | -14% |
| CC(CCc1ccccc1)CC(=O)NC1CCN(CC(N)=O)CC1 (centres undefined) | 0.475% |
| COc1ccnc(N2CCN(C(=O)CCc3cnn(C)c3)CC2)n1 | -11.9% |
| COc1cc(OC)c(CNC(=O)NCC(=O)N(C)C)c(OC)c1 | 1.38% |
| NC(=O)C1CCCN1Cc1ccccc1NC(=O)Cc1cccs1 (centres undefined) | 13% |
| N#Cc1ccc(NC2CCN(c3ncccn3)CC2)cc1C(F)(F)F | 5.96% |
| CCNC(=O)CCC(=O)Nc1nc(C)c(Cc2ccc(F)cc2)s1 | -1.26% |
| CSCCC(C)NC(=O)CCN1C(=O)CCc2cc(F)ccc21 (centres undefined) | -4.19% |
| Cc1ccc(C(=O)NS(C)(=O)=O)cc1I | 16.8% |
| Cc1cc(NC(N)=O)ccc1C(=O)N(C)C | 4.17% |
| CC(O)CNc1nc(-c2cccnc2)nc2c1CCC2 (centres undefined) | 0.874% |
| Cn1ncnc1NS(=O)(=O)c1ccccc1 | 6.82% |
| CC(C)C(C)NC(=O)CCN1C(=O)CCc2cc(F)ccc21 (centres undefined) | 19.4% |
| Cc1cc(C)nc(NC2CCOC3(CCCC3)C2)n1 (centres undefined) | 3.01% |
| CCOC(=O)CN1CCC(NC(=O)OC(C)(C)C)CC1 | 14.9% |
| CCOC(C)c1noc(CN(C)C(=O)C2C(C)(C)C2(C)C)n1 (centres undefined) | -2.89% |
| Cc1cc(NCC(C)C)ccc1C(=O)N(C)C | 13.4% |
| Cc1nsc(NC2CCOC3(CCCC3)C2)n1 (centres undefined) | -1.21% |

| Compound | cytotoxicity at 70.5 h |
| --- | --- |
| CCN(c1ccc(C(=O)N(Cc2cnn(C)c2)C(C)C)cn1)C(C)C | -24.7% |
| CC(C)NC(=O)CCCn1cnc2ccccc2c1=O | 16.8% |
| CC(C)COC(C)C(=O)NCCNC(=O)C(C)C (centres undefined) | -1.79% |
| O=C(CCCNC(=O)C1CCCO1)Nc1ccc(Cl)cc1 (centres undefined) | 17.1% |
| Cc1csc(CNC(=O)NCC2(c3ccc4c(c3)OCO4)CC2)n1 | -2.06% |
| CN(CCCc1cc(-c2ccc(F)cc2)n(C)n1)CC(N)=O | -11.3% |
| Cc1cc(CN2CCN(c3ccnc(-c4ccccc4)n3)CC2)no1 | -4.67% |
| CC(C(N)=O)N(C)CCCc1cc(-c2ccc(F)cc2)n(C)n1 (centres undefined) | -9.74% |
| O=C(NCCNS(=O)(=O)C1CCCCC1)c1ccccc1 | -10.7% |
| COCCn1ccc(NCc2cc3cc(F)ccc3o2)n1 | -6.3% |
| CC(C)c1nncn1CCNC(=O)c1ccc(Cl)cc1O | 0.918% |
| Cc1cc(C(=O)N2CCCS2(=O)=O)c(C)o1 | -9.77% |
| Cc1cc(C(=O)N2CCS(=O)(=O)CC2)c(C)o1 | -2.07% |
| CCOc1ccc(CN(CCC#N)CCN2CCOCC2)cc1OC | -0.151% |
| COc1ccc(OC)c(CNc2nnc(C(C)(C)C)o2)c1 | -12.4% |
| COc1cccc(C2CN(CCc3ccncc3)CCO2)c1 (centres undefined) | -6.16% |
| CCCS(=O)(=O)NCCc1ncc(CC)s1 | -0.431% |
| COc1ccc(CN(CCC#N)CCN2CCOCC2)c(OC)c1 | -4.65% |
| CN1CCC(NCC(O)c2cccc(OCc3ccccc3)c2)CC1 (centres undefined) | 4.18% |
| Cc1ncc(CNCC2CCC(C(N)=O)CC2)n1-c1ccccc1 (centres undefined) | 11.9% |
| Cc1ccccc1C(=O)NC1CCN(Cc2ncc(C(C)(C)C)o2)CC1 | -0.562% |
| O=C(CSCc1ccncc1)N(Cc1ccsc1)C1CC1 | 0.347% |
| COc1ccc(CNC(=O)c2ccc(Br)cn2)cc1 | 13.3% |
